Our source for the IC50 values is patent US20120165310A1, “ETHER DERIVATIVES OF BICYCLIC HETEROARYLS” (NOVARTIS AG, priority 2009, published 2012).

pIC50: −log10 of the molar value.

In general, pIC50 refers to the negative decadic logarithm of the IC50, by convention in mol/L. A lower pIC50 goes with a high IC50.

The target of the assay is T1, IGF-1R (Homo sapiens, UniProt P08069).
T1 construct: expressed in transfected cells; host or cells: Hek293 (Hek293-IGF1R)
T1 sequence (P08069 31-1367): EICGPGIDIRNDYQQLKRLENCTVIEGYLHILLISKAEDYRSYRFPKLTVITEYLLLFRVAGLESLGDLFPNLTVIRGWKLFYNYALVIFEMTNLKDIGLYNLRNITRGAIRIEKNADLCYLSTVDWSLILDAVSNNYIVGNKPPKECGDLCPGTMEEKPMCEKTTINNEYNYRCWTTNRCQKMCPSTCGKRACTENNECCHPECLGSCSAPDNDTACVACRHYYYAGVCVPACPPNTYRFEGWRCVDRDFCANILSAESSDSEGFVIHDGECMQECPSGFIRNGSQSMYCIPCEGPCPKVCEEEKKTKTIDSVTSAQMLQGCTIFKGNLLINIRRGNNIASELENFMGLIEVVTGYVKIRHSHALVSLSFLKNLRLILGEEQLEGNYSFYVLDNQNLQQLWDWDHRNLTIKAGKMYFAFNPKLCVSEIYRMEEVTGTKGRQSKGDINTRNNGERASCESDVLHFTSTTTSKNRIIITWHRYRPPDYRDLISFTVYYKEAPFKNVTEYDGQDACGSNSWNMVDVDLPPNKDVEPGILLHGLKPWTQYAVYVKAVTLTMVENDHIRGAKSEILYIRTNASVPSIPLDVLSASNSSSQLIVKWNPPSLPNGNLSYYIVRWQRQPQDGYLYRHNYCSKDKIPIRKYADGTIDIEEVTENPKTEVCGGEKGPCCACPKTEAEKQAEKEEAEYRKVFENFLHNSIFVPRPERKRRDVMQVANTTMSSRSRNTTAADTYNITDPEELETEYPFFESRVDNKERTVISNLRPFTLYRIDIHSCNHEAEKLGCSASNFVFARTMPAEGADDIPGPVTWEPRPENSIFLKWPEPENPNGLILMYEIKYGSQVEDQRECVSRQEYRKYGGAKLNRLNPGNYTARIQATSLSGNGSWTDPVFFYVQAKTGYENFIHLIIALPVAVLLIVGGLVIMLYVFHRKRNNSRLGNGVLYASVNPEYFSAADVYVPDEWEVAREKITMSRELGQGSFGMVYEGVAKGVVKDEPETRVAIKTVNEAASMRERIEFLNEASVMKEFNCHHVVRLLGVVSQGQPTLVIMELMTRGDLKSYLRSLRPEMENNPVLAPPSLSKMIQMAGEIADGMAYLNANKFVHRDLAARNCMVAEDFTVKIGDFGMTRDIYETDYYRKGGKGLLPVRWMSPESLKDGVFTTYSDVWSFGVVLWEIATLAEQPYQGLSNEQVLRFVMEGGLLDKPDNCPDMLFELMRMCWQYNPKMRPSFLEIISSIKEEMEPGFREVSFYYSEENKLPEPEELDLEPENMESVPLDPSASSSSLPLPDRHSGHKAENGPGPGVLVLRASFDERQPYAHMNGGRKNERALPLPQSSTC
Description: Cellular IGF-1R assay: capture ELISA (MSD) of receptor phosphorylation in Hek293 cells. The format is cell-based. To be noted: Hek293-IGF1R cells, 1 h pre-incubation, 10 min IGF stimulation, pIGF1R capture ELISA. The method in brief: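 IC50 from 4-parameter fit of IGF1R phosphorylation, normalised to IGF-stimulated and unstimulated controls, measured by MSD capture ELISA on lysates. Hek293-IGF1R cells in starvation medium got compound 1 h (top 10 μM, 3-fold steps, 0.1% DMSO) before a 10 min pulse of 1.0 ng/μL IGF.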
Take `CN1CCN([C@H]2CC[C@@H](n3cc(-c4cccc(OCC56CCC(CC5)O6)c4)c4c(N)ncnc43)CC2)CC1=O` [Example 143, 4-((1S,4S)-4-(5-(3-(7-oxabicyclo[2.2.1]heptan-1-ylmethoxy)phenyl)-4-amino-7H-pyrrolo[2,3-d]pyrimidin-7-yl)cyclohexyl)-1-methylpiperazin-2-one]: the pIC50 is 6.27 to 6.50.

In the case of `Nc1ncnc2c1c(-c1cccc(OCC34CCC(CC3)O4)c1)cn2[C@H]1CC[C@@H](NC(=O)CC(F)(F)F)CC1` [Example 144, N-((1S,4S)-4-(5-(3-(7-oxabicyclo[2.2.1]heptan-1-ylmethoxy)phenyl)-4-amino-7H-pyrrolo[2,3-d]pyrimidin-7-yl)cyclohexyl)-3,3,3-trifluoropropanamide], the pIC50 was 6.23. For `N#Cc1ccnc(N[C@H]2CC[C@@H](n3cc(-c4cccc(OCC56CCC(CC5)O6)c4)c4c(N)ncnc43)CC2)c1` [Example 145, 2-((1S,4S)-4-(5-(3-(7-oxabicyclo[2.2.1]heptan-1-ylmethoxy)phenyl)-4-amino-7H-pyrrolo[2,3-d]pyrimidin-7-yl)cyclohexylamino)isonicotinonitrile] the value was 6.64; for `Nc1ncnc2c1c(-c1cccc(OCC34CCC(CC3)O4)c1)cn2[C@H]1CC[C@@H](NC(=O)C2CC2)CC1` [Example 146, N-((1S,4S)-4-(5-(3-(7-oxabicyclo[2.2.1]heptan-1-ylmethoxy)phenyl)-4-amino-7H-pyrrolo[2,3-d]pyrimidin-7-yl)cyclohexyl)cyclopropanecarboxamide], 6.76. For `CC(C)C(=O)N[C@H]1CC[C@@H](n2cc(-c3cccc(OCC45CCC(CC4)O5)c3)c3c(N)ncnc32)CC1` [Example 147, N-((1S,4S)-4-(5-(3-(7-oxabicyclo[2.2.1]heptan-1-ylmethoxy)phenyl)-4-amino-7H-pyrrolo[2,3-d]pyrimidin-7-yl)cyclohexyl)isobutyramide] the value was 6.64.

The compound `Nc1ncnc2c1c(-c1cccc(OCC34CCC(CC3)O4)c1)cn2[C@H]1CC[C@@H](Cn2ccnc2)CC1` [Example 148, 7-((1S,4S)-4-((1H-imidazol-1-yl)methyl)cyclohexyl)-5-(3-(7-oxabicyclo[2.2.1]heptan-1-ylmethoxy)phenyl)-7H-pyrrolo[2,3-d]pyrimidin-4-amine] showed a pIC50 of 6.61. Turning to `Nc1ncnc2c1c(-c1cccc(OCC34CCC(CC3)O4)c1)cn2C1CCC(O)(CN2CCS(=O)(=O)CC2)CC1` (stereo not shown) [Example 149, 4-{4-Amino-5-[3-(7-oxa-bicyclo[2.2.1]hept-1-ylmethoxy)-phenyl]-pyrrolo[2,3-d]pyrimidin-7-yl}-1-(1,1-dioxo-1λ6-thiomorpholin-4-ylmethyl)-cyclohexanol], the negative logarithm of the IC50 (pIC50) was 6.33. Then `Nc1ncnc2c1c(-c1cccc(OCC34CCC(CC3)O4)c1)cn2C1CCC(c2cnco2)CC1` [Example 150, 5-(3-(7-oxabicyclo[2.2.1]heptan-1-ylmethoxy)phenyl)-7-((1S,4S)-4-(oxazol-5-yl)cyclohexyl)-7H-pyrrolo[2,3-d]pyrimidin-4-amine], with 6.47; and `Nc1ncnc2c1c(-c1cccc(OCC34CCC(CC3)O4)c1)cn2[C@H]1CC[C@H](c2cnco2)CC1` [Example 151, 5-(3-(7-oxabicyclo[2.2.1]heptan-1-ylmethoxy)phenyl)-7-((1R,4S)-4-(oxazol-5-yl)cyclohexyl)-7H-pyrrolo[2,3-d]pyrimidin-4-a mine], with 6.57; and `Nc1ncnc2c1c(-c1cccc(OC[C@@H]3CCCO3)c1)cn2[C@H]1C[C@@H](CN2CCS(=O)(=O)CC2)C1` [Example 156, 7-[cis-3-(1,1-Dioxo-1-thiomorpholin-4-ylmethyl)-cyclobutyl]-5-{3-[(S)-1-(tetrahydro-furan-2-yl)methoxy]-phenyl}-7H-pyrrolo[2,3-d]pyrimidin-4-ylamine], with 6.78.

As to `[2H]C([2H])(Oc1cccc(-c2cn([C@H]3C[C@@H](CN4CCS(=O)(=O)CC4)C3)c3ncnc(N)c23)c1)C12CCC(CC1)O2` [Example 159, d2-7-[cis-3-(1,1-dioxo-1-thiomorpholin-4-ylmethyl)-cyclobutyl]-5-[3-(7-oxa-bicyclo[2.2.1]hept-1-ylmethoxy)-phenyl]-7H-pyrrolo[2,3-d]pyrimidin-4-ylamine], the pIC50 was 7.85 to 8.15. For `COC(=O)NCC1CC(n2cc(-c3cccc(OCC45CCC(CC4)O5)c3)c3c(N)ncnc32)C1` (stereo not shown) [Example 161, (3-{4-amino-5-[3-(7-oxa-bicyclo[2.2.1]hept-1-ylmethoxy)-phenyl]-pyrrolo[2,3-d]pyrimidin-7-yl}-cyclobutylmethyl)-carbamic acid methyl ester] the value was 7.80; for `CCC(=O)NCC1CC(n2cc(-c3cccc(OCC45CCC(CC4)O5)c3)c3c(N)ncnc32)C1` (stereo not shown) [Example 162, N-(3-{4-amino-5-[3-(7-oxa-bicyclo[2.2.1]hept-1-ylmethoxy)-phenyl]-pyrrolo[2,3-d]pyrimidin-7-yl}-cyclobutylmethyl)-propionamide], 7.00; for `CCNC(=O)NCC1CC(n2cc(-c3cccc(OCC45CCC(CC4)O5)c3)c3c(N)ncnc32)C1` (stereo not shown) [Example 163, 1-(3-{4-amino-5-[3-(7-oxa-bicyclo[2.2.1]hept-1-ylmethoxy)-phenyl]-pyrrolo[2,3-d]pyrimidin-7-yl}-cyclobutylmethyl)-3-ethyl-urea], 6.82.

`CC(C)C(=O)NCC1CC(n2cc(-c3cccc(OCC45CCC(CC4)O5)c3)c3c(N)ncnc32)C1` (stereo not shown) [Example 164, N-(3-{4-amino-5-[3-(7-oxa-bicyclo[2.2.1]hept-1-ylmethoxy)-phenyl]-pyrrolo[2,3-d]pyrimidin-7-yl}-cyclobutylmethyl)-isobutyramide] had a pIC50 of 6.84. This pIC50 and that of the compound before are within 0.2 log units of each other.

Compound `[2H]C([2H])([2H])C(=O)NC[C@H]1C[C@@H](n2cc(-c3cccc(OCC45CCC(CC4)O5)c3)c3c(N)ncnc32)C1` [Example 165, d3-N-(3-{4-amino-5-[3-(7-oxa-bicyclo[2.2.1]hept-1-ylmethoxy)-phenyl]-pyrrolo[2,3-d]pyrimidin-7-yl}-cyclobutylmethyl)-acetamide] showed a pIC50 of 7.28.

The compound `[2H]C1([2H])C([2H])([2H])C2(COc3cccc(-c4cn([C@H]5C[C@@H](CN6CCS(=O)(=O)CC6)C5)c5ncnc(N)c45)c3)OC1([2H])C([2H])([2H])C2([2H])[2H]` [Example 166, d9-7-[cis-3-(1,1-dioxo-1-thiomorpholin-4-ylmethyl)-cyclobutyl]-5-[3-(7-oxa-bicyclo[2.2.1]hept-1-ylmethoxy)-phenyl]-7H-pyrrolo[2,3-d]pyrimidin-4-ylamine] showed a pIC50 of 7.80. For `CS(=O)(=O)NCC1CC(n2cc(-c3cccc(OCC45CCC(CC4)O5)c3)c3c(N)ncnc32)C1` (stereo not shown) [Example 167, N-(3-{4-amino-5-[3-(7-oxa-bicyclo[2.2.1]hept-1-ylmethoxy)-phenyl]-pyrrolo[2,3-d]pyrimidin-7-yl}-cyclobutylmethyl)-methanesulfonamide] the value was 6.78; for `Nc1ncnc2c1c(-c1cccc(OCC34CCC(CC3)O4)c1)cn2C1CC(CNC(CO)CO)C1` (stereo not shown) [Example 168, 2-[(3-{4-amino-5-[3-(7-oxa-bicyclo[2.2.1]hept-1-ylmethoxy)-phenyl]-pyrrolo[2,3-d]pyrimidin-7-yl}-cyclobutylmethyl)-amino]-propane-1,3-diol], 6.96; for `Nc1ncnc2c1c(-c1cccc(OCC34CCC(CC3)O4)c1)cn2[C@H]1C[C@@]2(CNC(=O)O2)C1` [Example 169, (E)-2-{4-amino-5-[3-(7-oxa-bicyclo[2.2.1]hept-1-ylmethoxy)-phenyl]-pyrrolo[2,3-d]pyrimidin-7-yl}-5-oxa-7-aza-spiro[3.4]octan-6-one], 7.18. In the case of `Nc1ncnc2c1c(-c1cccc(OCC34CCC(CC3)O4)c1)cn2C1CC(N2CCN(CCO)CC2)C1` (stereo not shown) [Example 170, 2-[4-(3-{4-amino-5-[3-(7-oxa-bicyclo[2.2.1]hept-1-ylmethoxy)-phenyl]-pyrrolo[2,3-d]pyrimidin-7-yl}-cyclobutyl)-piperazin-1-yl]-ethanol], the pIC50 is 7.36. Then `Nc1ncnc2c1c(-c1cccc(OCC34CCC(CC3)O4)c1)cn2[C@H]1C[C@H](N2CC3CC2CN3CCO)C1` (stereo partly drawn) [Example 175, 2-[(trans-3-{4-amino-5[3-(7-oxa-bicyclo[2.2.1]hept-1-ylmethoxy)-phenyl]-pyrrolo[2,3-d]pyrimidin-7-yl}-cyclobutyl)-2,5-diaza-bicyclo[2.2.1]hept-2-yl]-ethanol], with 6.36. Take `CC(=O)NC[C@H]1C[C@@H](n2cc(-c3cccc(OCC45CCC(CC4)O5)c3)c3c(N)ncnc32)C1` [Example 178]: the pIC50 was 6.95 to 7.33. Then `CCOC(=O)c1nccn1C[C@H]1C[C@@H](n2cc(-c3cccc(OCC45CCC(CC4)O5)c3)c3c(N)ncnc32)C1` [Example 180], with 7.24; and `CN1CCN([C@H]2C[C@@H](c3nc(-c4cccc(OCC56CCC(CC5)O6)c4)c4c(N)nccn43)C2)CC1` [Example 181], with 7.33; and `Nc1ncnc2c1c(-c1cccc(OCC34CCC(CC3)O4)c1)cn2[C@H]1C[C@@H](CN2C3CCC2CC(O)C3)C1` (stereo partly drawn) [Example 185, 8-(cis-3-{4-Amino-5-[3-(7-oxa-bicyclo[2.2.1]hept-1-ylmethoxy)-phenyl]-pyrrolo[2,3-d]pyrimidin-7-yl}-cyclobutylmethyl)-8-aza-bicyclo[3.2.1]octan-(3-exo)-ol], with 8.22. For `Nc1nccn2c1c(-c1cccc(OCC34CCC(CC3)O4)c1)nc2[C@H]1C[C@@H](N2CCC(O)CC2)C1` [Example 187] the value was 6.89; for `NC(=O)[C@@H]1CCCN1[C@H]1C[C@@H](n2cc(-c3cccc(OCC45CCC(CC4)O5)c3)c3c(N)ncnc32)C1` [Example 189, (S)-1-(cis-3-{4-Amino-5-[3-(7-oxa-bicyclo[2.2.1]hept-1-ylmethoxy)-phenyl]-pyrrolo[2,3-d]pyrimidin-7-yl}-cyclobutyl)-pyrrolidine-2-carboxylic acid amide], 6.88.
